Patent US8580832B2, “Substituted phenoxy aminothiazolones as estrogen related receptor-α modulators” (Janssen Pharmaceutica N.V., priority 2007, dated 2013)

molecular target: T1, ERR1 (also known as ERR-α or ERR-1) (Homo sapiens, UniProt P11474); assay: TR-FRET assay: disruption of co-activator peptide binding to ERR1 LBD; type: biochemical; details: 6His-tagged ERR1 LBD 6 nM, GST-SRC-2 peptide 6 nM, 25° C., 4-18 hours; average of 3 independent experiments
T1 construct: the ^6His-tagged-ERR1 LBD
T1 sequence (P11474 193-421 limits assumed): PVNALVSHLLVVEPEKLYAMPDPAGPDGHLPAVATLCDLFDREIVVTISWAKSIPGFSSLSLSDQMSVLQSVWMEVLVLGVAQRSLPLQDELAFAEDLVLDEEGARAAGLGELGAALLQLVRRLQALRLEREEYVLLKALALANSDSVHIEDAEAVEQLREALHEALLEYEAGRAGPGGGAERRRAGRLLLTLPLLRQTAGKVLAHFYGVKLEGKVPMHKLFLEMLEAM
Protocol: Time-Resolved Fluorescence Resonance Energy Transfer (TR-FRET) experiments were performed to examine the functional response of ERR1 (also known as ERR-α or ERR-1) ligands. The TR-FRET assay described herein relied on the conformation of ERR1 for binding to a co-activator peptide: when a test compound binds to ERR1 and alters its conformation, it can disrupt the binding of the co-activator peptide. The components of this homogeneous secondary assay included: the ^6His-tagged-ERR1 LBD, a GST-labeled-hSRC2 co-activator polypeptide and a fluorescent donor/acceptor pair from CIS bio international htrf/bioassays (Bedford, Mass.) using both an α-GST Europium Cryptate (Eu) label and an α^6His-XL665 (allophycocyanin) fluorophore.
For TR-FRET measurements, the reaction was buffered in 25 mM Tris pH 8, 2.5 mM Hepes, 20 mM KCl, 1 mM DTT, and 0.05 mg/mL BSA (-lipids). […] Reactions were allowed to reach equilibrium at 25° C. for 4-18 hours before collecting data on the Analyst from LJL Biosystems (Molecular Devices Sunnyvale, Calif.). […] Dose response curves were fitted using a hyperbolic equation and the data reported is the average of 3 independent experiments.

| SMILES | EC50 [nM] |
| --- | --- |
| CC(C)c1ccccc1Oc1ccc(/C=C2\SC(N3CC(C(=O)O)C3)=NC2=O)cc1 [Example 118, 1-{5-[4-(2-Isopropyl-phenoxy)-benzylidene]-4-oxo-4,5-dihydro-thiazol-2-yl}-azetidine-3-carboxylic acid] | 21 |
| COc1cc(/C=C2\SC(N(C)CC(O)CO)=NC2=O)ccc1Oc1ccc(C#N)cc1Cl (stereo not drawn) [Example 65, 3-Chloro-4-(4-{2-[(2,3-dihydroxy-propyl)-methyl-amino]-4-oxo-4H-thiazol-5-ylidenemethyl}-2-methoxy-phenoxy)-benzonitrile] | 89 |
| COc1cc(/C=C2\SC(N3CCNC(=O)C3)=NC2=O)ccc1Oc1ccc(C(N)=O)cc1C(F)(F)F [Example 115, 4-{2-Methoxy-4-[4-oxo-2-(3-oxo-piperazin-1-yl)-4H-thiazol-5-ylidenemethyl]-phenoxy}-3-trifluoromethyl-benzamide] | 89 |
| N#Cc1ccc(Oc2ccc(/C=C3\SC(NCC(F)F)=NC3=O)cc2F)c(C(F)(F)F)c1 [Example 97, 4-{4-[2-(2,2-Difluoro-ethylamino)-4-oxo-4H-thiazol-5-ylidenemethyl]-2-fluoro-phenoxy}-3-trifluoromethyl-benzonitrile] | 40 |
| COC(=O)c1ccc(Oc2ccc(/C=C3\SC(N4CCNC(=O)C4)=NC3=O)cc2OC)c(C(F)(F)F)c1 [Example 54, 4-{2-Methoxy-4-[4-oxo-2-(3-oxo-piperazin-1-yl)-4H-thiazol-5-ylidenemethyl]-phenoxy}-3-trifluoromethyl-benzoic acid methyl ester] | 74 |
| COC(=O)CC1CCN(C2=NC(=O)/C(=C/c3ccc(Oc4ccc(C#N)cc4C(F)(F)F)c(OC)c3)S2)CC1 [Example 83, (1-{5-[4-(4-Cyano-2-trifluoromethyl-phenoxy)-3-methoxy-benzylidene]-4-oxo-4,5-dihydro-thiazol-2-yl}-piperidin-4-yl)-acetic acid methyl ester] | 26 |
| CN1CCN(C2=NC(=O)/C(=C/c3ccc(Oc4ccc(C#N)cc4C(F)(F)F)c(F)c3)S2)CC1=O [Example 43, 4-{2-Fluoro-4-[2-(4-methyl-3-oxo-piperazin-1-yl)-4-oxo-4H-thiazol-5-ylidenemethyl]-phenoxy}-3-trifluoromethyl-benzonitrile] | 22 |
| CC1CN(C2=NC(=O)/C(=C/c3ccc(Oc4ccc(C#N)cc4C(F)(F)F)c(F)c3)S2)CC(C)O1 (stereo not drawn) [Example 46, 4-{4-[2-(2,6-Dimethyl-morpholin-4-yl)-4-oxo-4H-thiazol-5-ylidenemethyl]-2-fluoro-phenoxy}-3-trifluoromethyl-benzonitrile] | 19 |
| COc1cc(/C=C2\SC(NCCN3CCCC3)=NC2=O)ccc1Oc1ccc(C#N)cc1C(F)(F)F [Compound 20, 4-{2-Methoxy-4-[4-oxo-2-(2-pyrrolidin-1-yl-ethylamino)-4H-thiazol-5-ylidenemethyl]-phenoxy}-3-trifluoromethyl-benzonitrile] | 32 |
| COC(=O)c1ccc(Oc2ccc(/C=C3\SC(N4CCCC(O)C4)=NC3=O)cc2OC)c(C(F)(F)F)c1 (stereo not drawn) [Example 53, 4-{4-[2-(3-Hydroxy-piperidin-1-yl)-4-oxo-4H-thiazol-5-ylidenemethyl]-2-methoxy-phenoxy}-3-trifluoromethyl-benzoic acid methyl ester] | 42 |
| COc1cc(/C=C2\SC(NCC(O)CN)=NC2=O)ccc1Oc1ccc(C#N)cc1C(F)(F)F (stereo not drawn) [Example 95, 4-{4-[2-(3-Amino-2-hydroxy-propylamino)-4-oxo-4H-thiazol-5-ylidenemethyl]-2-methoxy-phenoxy}-3-trifluoromethyl-benzonitrile] | 89 |

Continued by falling EC50, values first:

| EC50 [nM] | SMILES |
| --- | --- |
| 19 | COc1cc(/C=C2\SC(N3CCN(CCO)CC3)=NC2=O)ccc1Oc1ccc(C#N)cc1C(F)(F)F [Compound 16, 4-(4-{2-[4-(2-Hydroxy-ethyl)-piperazin-1-yl]-4-oxo-4H-thiazol-5-ylidenemethyl}-2-methoxy-phenoxy)-3-trifluoromethyl-benzonitrile] |
| 18 | N#Cc1ccc(Oc2ccc(/C=C3\SC(N(CCO)CCO)=NC3=O)cc2F)c(C(F)(F)F)c1 [Example 41, 4-(4-{2-[Bis-(2-hydroxy-ethyl)-amino]-4-oxo-4H-thiazol-5-ylidenemethyl}-2-fluoro-phenoxy)-3-trifluoromethyl-benzonitrile] |
| 15 | COc1cc(/C=C2\SC(NCc3ccoc3)=NC2=O)ccc1Oc1ccc(C#N)cc1C(F)(F)F [Example 88, 4-(4-{2-[(Furan-3-ylmethyl)-amino]-4-oxo-4H-thiazol-5-ylidenemethyl}-2-methoxy-phenoxy)-3-trifluoromethyl-benzonitrile] |
| 14 | COC(=O)c1ccc(Oc2ccc(/C=C3\SC(N4CCC(C(=O)OC)CC4)=NC3=O)cc2OC)c(C(F)(F)F)c1 [Example 113, 1-{5-[3-Methoxy-4-(4-methoxycarbonyl-2-trifluoromethyl-phenoxy)-benzylidene]-4-oxo-4,5-dihydro-thiazol-2-yl}-piperidine-4-carboxylic acid methyl ester] |
| 13 | COc1cc(/C=C2\SC(NCCNC(C)=O)=NC2=O)ccc1Oc1ccc(C#N)cc1C(F)(F)F [Example 71, N-(2-{5-[4-(4-Cyano-2-trifluoromethyl-phenoxy)-3-methoxy-benzylidene]-4-oxo-4,5-dihydro-thiazol-2-ylamino}-ethyl)-acetamide] |
| 11 | COc1cc(/C=C2\SC(NCCCN3CCOCC3)=NC2=O)ccc1Oc1ccc(C#N)cc1C(F)(F)F [Example 27, 4-{2-Methoxy-4-[2-(3-morpholin-4-yl-propylamino)-4-oxo-4H-thiazol-5-ylidenemethyl]-phenoxy}-3-trifluoromethyl-benzonitrile] |
| 10 | COc1cc(/C=C2\SC(N3CC(C(=O)O)C3)=NC2=O)ccc1Oc1ccccc1C(F)(F)F [Example 119, 1-{5-[3-Methoxy-4-(2-trifluoromethyl-phenoxy)-benzylidene]-4-oxo-4,5-dihydro-thiazol-2-yl}-azetidine-3-carboxylic acid] |
| 10 | N#Cc1ccc(Oc2ccc(/C=C3\SC(NCCCN4CCOCC4)=NC3=O)cc2F)c(C(F)(F)F)c1 [Example 49, 4-{2-Fluoro-4-[2-(3-morpholin-4-yl-propylamino)-4-oxo-4H-thiazol-5-ylidenemethyl]-phenoxy}-3-trifluoromethyl-benzonitrile] |
| 10 | COc1cc(/C=C2\SC(N3CCC(N(C)C)CC3)=NC2=O)ccc1Oc1ccc(C#N)cc1C(F)(F)F [Example 86, 4-{4-[2-(4-Dimethylamino-piperidin-1-yl)-4-oxo-4H-thiazol-5-ylidenemethyl]-2-methoxy-phenoxy}-3-trifluoromethyl-benzonitrile] |
| 9 | COc1cc(/C=C2\SC(NCCCN3CCCC3=O)=NC2=O)ccc1Oc1ccc(C#N)cc1C(F)(F)F [Compound 22, 4-(2-Methoxy-4-{4-oxo-2-[3-(2-oxo-pyrrolidin-1-yl)-propylamino]-4H-thiazol-5-ylidenemethyl}-phenoxy)-3-trifluoromethyl-benzonitrile] |
| 9 | CN(C)CCCNC1=NC(=O)/C(=C/c2ccc(Oc3ccc(C#N)cc3C(F)(F)F)c(F)c2)S1 [Example 48, 4-{4-[2-(3-Dimethylamino-propylamino)-4-oxo-4H-thiazol-5-ylidenemethyl]-2-fluoro-phenoxy}-3-trifluoromethyl-benzonitrile] |
| 9 | COc1cc(/C=C2\SC(N3CCC(O)C3)=NC2=O)ccc1Oc1ccc(C#N)cc1C(F)(F)F (stereo not drawn) [Example 39, 4-{4-[2-(3-Hydroxy-pyrrolidin-1-yl)-4-oxo-4H-thiazol-5-ylidenemethyl]-2-methoxy-phenoxy}-3-trifluoromethyl-benzonitrile] |
| 9 | COc1cc(/C=C2\SC(NCCF)=NC2=O)ccc1Oc1ccc(C#N)cc1C(F)(F)F [Example 91, 4-{4-[2-(2-Fluoro-ethylamino)-4-oxo-4H-thiazol-5-ylidenemethyl]-2-methoxy-phenoxy}-3-trifluoromethyl-benzonitrile] |
| 5 | COc1cc(/C=C2\SC(NCCC3CCOCC3)=NC2=O)ccc1Oc1ccc(C#N)cc1C(F)(F)F [Example 109, 4-(2-Methoxy-4-{4-oxo-2-[2-(tetrahydro-pyran-4-yl)-ethylamino]-4H-thiazol-5-ylidenemethyl}-phenoxy)-3-trifluoromethyl-benzonitrile] |
| 3 | COc1cc(/C=C2\SC(N(C)CC(O)CO)=NC2=O)ccc1Oc1ccc(Cl)cc1C(F)(F)F (stereo not drawn) [Example 62, 5-[4-(4-Chloro-2-trifluoromethyl-phenoxy)-3-methoxy-benzylidene]-2-[(2,3-dihydroxy-propyl)-methyl-amino]-thiazol-4-one] |
| 3 | O=C1N=C(NCCCN2CCCC2=O)S/C1=C\c1ccc(Oc2ccc(Cl)cc2C(F)(F)F)c(F)c1 [Example 67, 5-[4-(4-Chloro-2-trifluoromethyl-phenoxy)-3-fluoro-benzylidene]-2-[3-(2-oxo-pyrrolidin-1-yl)-propylamino]-thiazol-4-one] |
